Results published in ChEMBL document CHEMBL3885861, “Open TG-GATES”.
Where “and” joins values, the source holds several entries; their conditions need not be identical. Equal values may be shown once.

Organism: Rattus norvegicus
Assay: Open TG-GATES - Regimen: Single
Format: toxicity, organism-based, Sprague-Dawley
Design: regimen Single, gender Male, age 6 weeks
Conditions: in vivo, po, 0 mg/kg, route gavage, dose level Control; for APTT / Bas / Eos / Fbg / Hb / Ht / Lym / MCH / MCHC / MCV / Mono / Neu / PT / Plat / RBC / Ret / WBC: tissue Blood; for KIDNEY_L / KIDNEY_R / KIDNEY_TOTAL: tissue Kidney; for LIVER: tissue Liver; for ALP / ALT / AST / BUN / CRE / Ca / Cl / GLC / IP / K / LDH / Na / PL / RALB / TBIL / TC / TP / gamma-GTP: tissue Plasma

O=P1(N(CCCl)CCCl)NCCCO1 (stereo not given) [CYCLOPHOSPHAMIDE ANHYDROUS]
TERMINAL_BW (3 h): 187.8 g and 193 g | APTT (3 h): 22.9 s and 16.1 s | Bas (3 h): 0% and 0.2% | Eos (3 h): 1% and 0.6% | Fbg (3 h): 287.4 mg/dL and 271.4 mg/dL | Hb (3 h): 13.1 g/dL and 13.4 g/dL | Ht (3 h): 39.1% and 39.6% | Lym (3 h): 84% and 75.6% | MCH (3 h): 21.3 pg and 21 pg | MCHC (3 h): 33.5% and 33.7% | MCV (3 h): 63.6 fL and 62.4 fL | Mono (3 h): 1.6% and 3.2% | Neu (3 h): 12.8% and 20.2% | PT (3 h): 15.9 s and 13.8 s | Plat (3 h): 124.4 x10_4/uL and 125.2 x10_4/uL | RBC (3 h): 614.8 x10_4/ul and 636 x10_4/ul | Ret (3 h): 8.6% and 9.1% | WBC (3 h): 75.9 x10_2/uL and 115.3 x10_2/uL | KIDNEY_L (3 h): 0.9 g | KIDNEY_R (3 h): 0.8 g | KIDNEY_TOTAL (3 h): 1.7 g | LIVER (3 h): 8.5 g and 8.2 g | ALP (3 h): 1691.4 IU/L and 1383.8 IU/L | ALT (3 h): 46.4 IU/L and 37.2 IU/L | AST (3 h): 77.8 IU/L and 73.8 IU/L | BUN (3 h): 13.4 mg/dL and 10 mg/dL | CRE (3 h): 0.2 mg/dL | Ca (3 h): 10.6 mg/dL and 11 mg/dL | Cl (3 h): 106.8 meq/L and 105.2 meq/L | GLC (3 h): 188.8 mg/dL and 175.4 mg/dL | IP (3 h): 8.2 mg/dL and 8.4 mg/dL | K (3 h): 3.8 meq/L and 4.6 meq/L | LDH (3 h): 185 IU/L and 66 IU/L | Na (3 h): 144.2 meq/L and 140.4 meq/L | PL (3 h): 135.6 mg/dL and 140.8 mg/dL | RALB (3 h): 2.9 g/dL and 2.4 g/dL | TBIL (3 h): 0.026 mg/dL and 0.066 mg/dL | TC (3 h): 78.4 mg/dL and 78 mg/dL | TP (3 h): 5.4 g/dL and 5.2 g/dL | gamma-GTP (3 h): 1 IU/L and 1.2 IU/L | TERMINAL_BW (6 h): 190.8 g and 192 g | APTT (6 h): 21.9 s and 18.3 s | Bas (6 h): 0% | Eos (6 h): 0.6% and 1% | Fbg (6 h): 286 mg/dL and 280.6 mg/dL | Hb (6 h): 13.3 g/dL and 12.8 g/dL | Ht (6 h): 39.8% and 38.3% | Lym (6 h): 78.6% and 76.6% | MCH (6 h): 21.1 pg and 20.7 pg | MCHC (6 h): 33.5% | MCV (6 h): 63.1 fL and 61.8 fL | Mono (6 h): 2% | Neu (6 h): 17.8% and 20.2% | PT (6 h): 16.4 s and 14 s | Plat (6 h): 122.5 x10_4/uL and 115 x10_4/uL | RBC (6 h): 630.6 x10_4/ul and 620.2 x10_4/ul | Ret (6 h): 8.1% and 8.5% | WBC (6 h): 102.3 x10_2/uL and 90.1 x10_2/uL | KIDNEY_L (6 h): 0.9 g and 0.8 g | KIDNEY_R (6 h): 0.9 g and 0.8 g | KIDNEY_TOTAL (6 h): 1.7 g | LIVER (6 h): 8.1 g | ALP (6 h): 1329.6 IU/L and 1641.8 IU/L | ALT (6 h): 38.8 IU/L and 34.4 IU/L | AST (6 h): 66.8 IU/L and 71.4 IU/L | BUN (6 h): 10.8 mg/dL and 10 mg/dL | CRE (6 h): 0.1 mg/dL and 0.2 mg/dL | Ca (6 h): 10.6 mg/dL and 11 mg/dL | Cl (6 h): 106 meq/L and 106.2 meq/L | GLC (6 h): 185.2 mg/dL and 174.8 mg/dL | IP (6 h): 8.9 mg/dL and 9 mg/dL | K (6 h): 4.2 meq/L and 4.3 meq/L | LDH (6 h): 166.8 IU/L and 60.6 IU/L | Na (6 h): 143.4 meq/L and 142.4 meq/L | PL (6 h): 134.2 mg/dL and 136.8 mg/dL | RALB (6 h): 2.8 g/dL and 2.5 g/dL | TBIL (6 h): 0.032 mg/dL and 0.068 mg/dL | TC (6 h): 75.8 mg/dL and 74.2 mg/dL | TP (6 h): 5.4 g/dL and 5.3 g/dL | gamma-GTP (6 h): 1 IU/L | TERMINAL_BW (9 h): 186.5 g and 187.9 g | APTT (9 h): 20.3 s and 17.4 s | Bas (9 h): 0% | Eos (9 h): 0.6% and 1% | Fbg (9 h): 300.4 mg/dL and 291.4 mg/dL | Hb (9 h): 13 g/dL and 12.7 g/dL | Ht (9 h): 38.9% and 38.1% | Lym (9 h): 80.8% and 75.6% | MCH (9 h): 21.1 pg and 20.6 pg | MCHC (9 h): 33.5% and 33.3% | MCV (9 h): 62.9 fL and 61.8 fL | Mono (9 h): 1.8% | Neu (9 h): 16.4% and 20.8% | PT (9 h): 16.6 s and 13.9 s | Plat (9 h): 120.1 x10_4/uL and 120.7 x10_4/uL | RBC (9 h): 619.4 x10_4/ul and 616.6 x10_4/ul | Ret (9 h): 7.8% and 8.3% | WBC (9 h): 78.2 x10_2/uL and 80.1 x10_2/uL | KIDNEY_L (9 h): 0.9 g and 0.8 g | KIDNEY_R (9 h): 0.9 g and 0.8 g | KIDNEY_TOTAL (9 h): 1.8 g and 1.6 g | LIVER (9 h): 7.7 g and 7.1 g | ALP (9 h): 1482.2 IU/L and 1393 IU/L | ALT (9 h): 37.6 IU/L and 35 IU/L | AST (9 h): 69 IU/L and 73.8 IU/L | BUN (9 h): 10.4 mg/dL and 7.4 mg/dL | CRE (9 h): 0.1 mg/dL and 0.2 mg/dL | Ca (9 h): 10.4 mg/dL and 10.7 mg/dL | Cl (9 h): 106 meq/L and 106.4 meq/L | GLC (9 h): 178.6 mg/dL and 161 mg/dL | IP (9 h): 9.7 mg/dL and 9.3 mg/dL | K (9 h): 3.8 meq/L and 4.2 meq/L | Na (9 h): 143 meq/L and 141.8 meq/L | PL (9 h): 126.6 mg/dL and 131.6 mg/dL | RALB (9 h): 3 g/dL and 2.5 g/dL | TBIL (9 h): 0.034 mg/dL and 0.072 mg/dL | TC (9 h): 72.6 mg/dL and 78 mg/dL | TP (9 h): 5.4 g/dL and 5.3 g/dL | gamma-GTP (9 h): 1 IU/L and 1.6 IU/L | TERMINAL_BW (24 h): 205 g and 201 g | APTT (24 h): 21 s and 17.8 s | Bas (24 h): 0% | Eos (24 h): 0.6% and 1.2% | Fbg (24 h): 300.2 mg/dL and 289 mg/dL | Hb (24 h): 13.1 g/dL and 13.5 g/dL | Ht (24 h): 39.3% and 40.6% | Lym (24 h): 81.8% and 74.6% | MCH (24 h): 21.4 pg and 20.6 pg | MCHC (24 h): 33.3% and 33.4% | MCV (24 h): 64.2 fL and 61.7 fL | Mono (24 h): 2.2% and 3% | Neu (24 h): 15.2% and 21% | PT (24 h): 16.5 s and 14 s | Plat (24 h): 120.5 x10_4/uL and 107.8 x10_4/uL | RBC (24 h): 612.4 x10_4/ul and 658.4 x10_4/ul | Ret (24 h): 7.8% and 7.5% | WBC (24 h): 90.3 x10_2/uL and 86.9 x10_2/uL | KIDNEY_L (24 h): 0.9 g | KIDNEY_R (24 h): 0.9 g and 0.8 g | KIDNEY_TOTAL (24 h): 1.9 g and 1.7 g
